# Measurements published in US10913780B2, “Conjugates, their compositions, their uses, and their methods of making” (THE ADMINISTRATORS OF THE TULANE EDUCATIONAL FUND, priority 2016, dated 2021).
# Bridge positions count the residues as written; N and C are the ends. Square brackets hold non-standard residues; d marks the D form. * marks the point of attachment. 4‑mercaptophenylacetyl = O=C(Cc1ccc(S)cc1)*; Nle = CCCC[C@H](N)C(=O)O
# Test system: activated human T-cells (Jurkat)
# Assay: Inhibition of IL-2 release from a culture of activated human T-cells (Jurkat)
# Assay type: cell-based
# Settings: for inhibition of IL-2 release: Jurkat cells stimulated with lectin and Phorbol, overnight, potency compared with tacrolimus (FK-506); for effect on IL-2 release in the presence of increasing amounts of lanreotide: large excess of the somatostatin type 2 agonist lanreotide
# Procedure: Cells were harvested, washed twice, and re-suspended in serum-free medium at a cell density of 4×10^6 cells/ml. Fifty μl of cell suspension was then added to each well of 96-well plates followed by 50 μl of tested compounds at different concentration (4×) for 1 hour at 37° C. The cells were stimulated to release IL-2 by adding 50 μl of lectin in PBS (10 μg/ml) and 50 μl of Phorbol in DMSO (100 ng/ml) to each well and continuing overnight incubation. The plates were centrifuged for 10 min at 1500 rpm and supernatants harvested for IL-2 assay using kits purchased from R&D Systems (Minneapolis, Minn.) and following the experimental directions provided.
Compound,inhibition of IL-2 release,inhibition of IL-2 release (listed as 32-thiol analog of tacrolimus),inhibition of IL-2 release (listed as tacrolimus-32-SH),effect on IL-2 release in the presence of increasing amounts of lanreotide,effect on IL-2 release in the presence of increasing amounts of lanreotide (listed as tacrolimus-32-SH-somatostatin)
"C=CC[C@@H]1/C=C(\C)C[C@H](C)C[C@H](OC)[C@H]2O[C@@](O)(C(=O)C(=O)N3CCCC[C@H]3C(=O)O[C@H](/C(C)=C/[C@@H]3CC[C@@H](O)[C@H](OC)C3)[C@H](C)[C@@H](O)CC1=O)[C@H](C)C[C@@H]2OC [Tacrolimus, reference compound]",potent inhibitor,,,,
"C=CC[C@@H]1/C=C(\C)C[C@H](C)C[C@H](OC)[C@H]2O[C@@](O)(C(=O)C(=O)N3CCCC[C@H]3C(=O)O[C@H](/C(C)=C/[C@@H]3CCC(S)[C@H](OC)C3)[C@H](C)[C@@H](O)CC1=O)[C@H](C)C[C@@H]2OC (stereo partly drawn) [tacrolimus-32-thiol, Tacrolimus-32-Thiol]",,virtually equipotent with the parent compound,equivalent potencies,,
Example 10: Tacrolimus-32-thiol linked by a disulfide bond (4-mercaptophenylacetic acid) to the cyclized somatostatin analog peptide of Example 9 ({tacrolimus‑32‑thiol (disulfide)-4‑mercaptophenylacetyl}-[dS]S[dS]S[dS][Nle][dY][dS]CF[dW]KTCT-NH2; disulfide 9-14),virtually equipotent,,,blocked the IL-2 release inhibiting capability,Blockade of biological activity
